Key:
Settings in all cases: 72 h
Caco-2 [1] = experiment: cell viability relative to DMSO; higher = less toxic
Calu-3 [2] = experiment: as above
HepG2 [3] = experiment: as above
U2OS [4] = experiment: as above
Vero E6 [5] = experiment: as above
Calu-3 [6] = experiment: relative viability EC50 (midpoint between 100% and the lowest measured viability); higher = less toxic
HepG2 [7] = experiment: as above
U2OS [8] = experiment: as above
Vero E6 [9] = experiment: as above
Caco-2 [10] = experiment: drug sensitivity score (DSS) for viability; higher = more toxic; extreme values may be limits of the assay
Calu-3 [11] = experiment: as above
HepG2 [12] = experiment: as above
U2OS [13] = experiment: as above
Vero E6 [14] = experiment: as above
Caco-2 [15] = experiment: relative viability EC50 (midpoint between 100% and the lowest measured viability); higher = less toxic

O=C1[C@H]2CCCC[C@H]2C(=O)N1CCCCN1CCN(c2nsc3ccccc23)CC1 [perospirone]
cell viability (Caco-2 [1]; 1 nM): 86.7%
cell viability (Caco-2 [1]; 10 nM): 87%
cell viability (Caco-2 [1]; 100 nM): 91.8%
cell viability (Caco-2 [1]; 1000 nM): 92.9%
cell viability (Caco-2 [1]; 10000 nM): 65.9%
cell viability (Calu-3 [2]; 1 nM): 94.1%
cell viability (Calu-3 [2]; 10 nM): 101%
cell viability (Calu-3 [2]; 100 nM): 99.3%
cell viability (Calu-3 [2]; 1000 nM): 98.7%
cell viability (Calu-3 [2]; 10000 nM): 89%
cell viability (HepG2 [3]; 1 nM): 97.4%
cell viability (HepG2 [3]; 10 nM): 88.9%
cell viability (HepG2 [3]; 100 nM): 89.1%
cell viability (HepG2 [3]; 1000 nM): 89.1%
cell viability (HepG2 [3]; 10000 nM): 86.1%
cell viability (U2OS [4]; 1 nM): 96.2%
cell viability (U2OS [4]; 10 nM): 99.7%
cell viability (U2OS [4]; 100 nM): 104%
cell viability (U2OS [4]; 1000 nM): 92.9%
cell viability (U2OS [4]; 10000 nM): 92.8%
cell viability (Vero E6 [5]; 1 nM): 104%
cell viability (Vero E6 [5]; 10 nM): 98.7%
cell viability (Vero E6 [5]; 100 nM): 102%
cell viability (Vero E6 [5]; 1000 nM): 101%
cell viability (Vero E6 [5]; 10000 nM): 107%
relative viability EC50 (Calu-3 [6]): > 10 µM
relative viability EC50 (HepG2 [7]): > 10 µM
relative viability EC50 (U2OS [8]): > 10 µM
relative viability EC50 (Vero E6 [9]): > 10 µM
drug sensitivity score (Caco-2 [10]): 3.4
drug sensitivity score (Calu-3 [11]): 0
drug sensitivity score (HepG2 [12]): 2
drug sensitivity score (U2OS [13]): 0
drug sensitivity score (Vero E6 [14]): 0

Oc1ccc(Cl)cc1 [parachlorophenol]
cell viability (Caco-2 [1]; 1 nM): 94.2%
cell viability (Caco-2 [1]; 10 nM): 91.5%
cell viability (Caco-2 [1]; 100 nM): 99.7%
cell viability (Caco-2 [1]; 1000 nM): 90.4%
cell viability (Caco-2 [1]; 10000 nM): 100%
cell viability (Calu-3 [2]; 1 nM): 102%
cell viability (Calu-3 [2]; 10 nM): 100%
cell viability (Calu-3 [2]; 100 nM): 98.9%
cell viability (Calu-3 [2]; 1000 nM): 91.2%
cell viability (Calu-3 [2]; 10000 nM): 104%
cell viability (HepG2 [3]; 1 nM): 108%
cell viability (HepG2 [3]; 10 nM): 99.1%
cell viability (HepG2 [3]; 100 nM): 90.9%
cell viability (HepG2 [3]; 1000 nM): 111%
cell viability (HepG2 [3]; 10000 nM): 98.4%
cell viability (U2OS [4]; 1 nM): 98.5%
cell viability (U2OS [4]; 10 nM): 96.5%
cell viability (U2OS [4]; 100 nM): 97.2%
cell viability (U2OS [4]; 1000 nM): 95.4%
cell viability (U2OS [4]; 10000 nM): 102%
cell viability (Vero E6 [5]; 1 nM): 100%
cell viability (Vero E6 [5]; 10 nM): 101%
cell viability (Vero E6 [5]; 100 nM): 99.3%
cell viability (Vero E6 [5]; 1000 nM): 97.7%
cell viability (Vero E6 [5]; 10000 nM): 99.7%
relative viability EC50 (Caco-2 [15]): > 10 µM
relative viability EC50 (Calu-3 [6]): > 10 µM
relative viability EC50 (HepG2 [7]): > 10 µM
relative viability EC50 (U2OS [8]): > 10 µM
relative viability EC50 (Vero E6 [9]): > 10 µM
drug sensitivity score (Caco-2 [10]): 0
drug sensitivity score (Calu-3 [11]): 0
drug sensitivity score (HepG2 [12]): 0
drug sensitivity score (U2OS [13]): 0
drug sensitivity score (Vero E6 [14]): 0

O=C(Nc1ccc([N+](=O)[O-])cc1Cl)c1cc(Cl)ccc1O [niclosamide]
cell viability (Caco-2 [1]; 1 nM): 101%
cell viability (Caco-2 [1]; 10 nM): 102%
cell viability (Caco-2 [1]; 100 nM): 95.3%
cell viability (Caco-2 [1]; 1000 nM): 93.7%
cell viability (Caco-2 [1]; 10000 nM): 17.6%
cell viability (Calu-3 [2]; 1 nM): 106%
cell viability (Calu-3 [2]; 10 nM): 98.4%
cell viability (Calu-3 [2]; 100 nM): 92.2%
cell viability (Calu-3 [2]; 1000 nM): 91.3%
cell viability (Calu-3 [2]; 10000 nM): 86.2%
cell viability (HepG2 [3]; 1 nM): 104%
cell viability (HepG2 [3]; 10 nM): 99.4%
cell viability (HepG2 [3]; 100 nM): 109%
cell viability (HepG2 [3]; 1000 nM): 98%
cell viability (HepG2 [3]; 10000 nM): 9.9%
cell viability (U2OS [4]; 1 nM): 101%
cell viability (U2OS [4]; 10 nM): 104%
cell viability (U2OS [4]; 100 nM): 97.2%
cell viability (U2OS [4]; 1000 nM): 103%
cell viability (U2OS [4]; 10000 nM): 68.9%
cell viability (Vero E6 [5]; 1 nM): 101%
cell viability (Vero E6 [5]; 10 nM): 99.7%
cell viability (Vero E6 [5]; 100 nM): 102%
cell viability (Vero E6 [5]; 1000 nM): 102%
cell viability (Vero E6 [5]; 10000 nM): 20%
relative viability EC50 (Caco-2 [15]): 2.54 µM
relative viability EC50 (Calu-3 [6]): > 10 µM
relative viability EC50 (HepG2 [7]): 3.01 µM
relative viability EC50 (Vero E6 [9]): 3.34 µM
drug sensitivity score (Caco-2 [10]): 5.6
drug sensitivity score (Calu-3 [11]): 0.6
drug sensitivity score (HepG2 [12]): 5.3
drug sensitivity score (U2OS [13]): 1.2
drug sensitivity score (Vero E6 [14]): 4.2

CC(=O)NO [acetohydroxamic-acid]
cell viability (Caco-2 [1]; 1 nM): 96.3%
cell viability (Caco-2 [1]; 10 nM): 97.6%
cell viability (Caco-2 [1]; 100 nM): 94.9%
cell viability (Caco-2 [1]; 1000 nM): 95.5%
cell viability (Caco-2 [1]; 10000 nM): 112%
cell viability (Calu-3 [2]; 1 nM): 104%
cell viability (Calu-3 [2]; 10 nM): 98.8%
cell viability (Calu-3 [2]; 100 nM): 112%
cell viability (Calu-3 [2]; 1000 nM): 92.6%
cell viability (Calu-3 [2]; 10000 nM): 96.9%
cell viability (HepG2 [3]; 1 nM): 99.6%
cell viability (HepG2 [3]; 10 nM): 101%
cell viability (HepG2 [3]; 100 nM): 95.9%
cell viability (HepG2 [3]; 1000 nM): 96.2%
cell viability (HepG2 [3]; 10000 nM): 97.3%
cell viability (U2OS [4]; 1 nM): 106%
cell viability (U2OS [4]; 10 nM): 102%
cell viability (U2OS [4]; 100 nM): 97.7%
cell viability (U2OS [4]; 1000 nM): 98.7%
cell viability (U2OS [4]; 10000 nM): 99.8%
cell viability (Vero E6 [5]; 1 nM): 97.6%
cell viability (Vero E6 [5]; 10 nM): 97.2%
cell viability (Vero E6 [5]; 100 nM): 102%
cell viability (Vero E6 [5]; 1000 nM): 101%
cell viability (Vero E6 [5]; 10000 nM): 97.6%
relative viability EC50 (Caco-2 [15]): > 10 µM
relative viability EC50 (Calu-3 [6]): > 10 µM
relative viability EC50 (HepG2 [7]): > 10 µM
relative viability EC50 (U2OS [8]): > 10 µM
relative viability EC50 (Vero E6 [9]): > 10 µM
drug sensitivity score (Caco-2 [10]): 0
drug sensitivity score (Calu-3 [11]): 0
drug sensitivity score (HepG2 [12]): 0
drug sensitivity score (U2OS [13]): 0
drug sensitivity score (Vero E6 [14]): 0
